How the values were obtained:
[1] = test system: phosphorylation of FLT3 and its down-stream effector STAT5; assay: Western blotting of p-FLT3 and p-STAT5 in MV4-11 cells; format: cell-based; details: Homo sapiens; at 30 nM treatment, 3 hours, FLT3-ITD positive MV4-11 leukemia cells; read-out: inhibition activity against phosphorylation of FLT3 and its down-stream effector STAT5
In short: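 MV4-11 cells held overnight in IMDM with 0.1% FBS, then 3 million cells treated with compound for 3 h. Whole lysates immunoblotted for p-FLT3 (Tyr-591), p-STAT5 (Tyr-694) and actin. Band intensities at 30 nM compared to DMSO control; % inhibition = (1 − relative intensity) × 100.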

[2] = test system: Molm-14 human acute myeloid leukemia cell with FLT3-ITD mutation; assay: Molm-14 cell proliferation assay (CellTiter 96); format: cell-based; details: Homo sapiens; Molm-14 cells, 72 hours treatment, CellTiter96; read-out: anti-proliferation activity Molm-14 (FLT3-ITD), IC50 ranking
In short: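 Molm-14 (FLT3-ITD AML) cells in RPMI 1640 with 10% heat-inactivated FBS were seeded at 25000 cells/well, incubated overnight at 37° C, 5% CO2, then treated with increasing compound concentrations for 72 hours. Viability was read as absorbance at 490 nm after 2˜4 hours with CellTiter96 AQueous One reagent.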

[3] = target: T1, MET kinase (Homo sapiens, UniProt P08581); assay: MET kinase assay (AlphaScreen, counter screen); format: biochemical; details: read-out: Ranking of IC50 values, MET
T1 construct: purchased SignalChem
In short: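 IC50 came from duplicate serial dilutions, with AlphaScreen detection of phosphorylated biotin-poly(Glu4:Tyr1). The reaction used 1 ng recombinant MET, 10 µM ATP […], and MOPS pH 7.0/MgCl2 buffer, ran 45 min at 30 °C, and was quenched with EDTA.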

[4] = test system: HCC827 NSCLC cell with EGFR exon 19 deletion mutation; assay: HCC827 cell proliferation assay (counter screen); format: cell-based, human; details: Homo sapiens, HCC827 cells, 72 hours treatment, CellTiter96, read-out: anti-proliferation activity HCC827 EGFR Exon19 del, IC50 ranking
In short: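 HCC827 cells (EGFR exon 19 deletion) were seeded at 8000 cells/well in RPMI1640 with 10% FBS, then exposed to increasing compound concentrations for 72 h at 37 °C. Viability was read by CellTiter96 AQueous One (MTS), absorbance 490 nm after 2–4 h.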

[5] = test system: THP-1 human acute monocytic leukemia cell with NRAS G12D mutation; assay: THP-1 cell proliferation assay (counter screen); format: cell-based; details: Homo sapiens, THP-1 cells, 72 hours treatment, CellTiter96, read-out: anti-proliferation activity THP-1 NRAS N12D, IC50 ranking
In short: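 Viability measured as 490 nm absorbance after 2–4 h with CellTiter96 AQueous One reagent, following 72 h treatment with rising compound concentrations. THP-1 cells, 5000/well, grown in RPMI 1640 with 10% FBS and 0.05 mM 2-mercaptoethanol at 37° C, 5% CO2, plated overnight before dosing.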

[6] = test system: A375 melanoma cell with BRAF V600E mutation; assay: A375 cell proliferation assay (counter screen); format: cell-based, human; details: Homo sapiens, A-375, A375 cells, 72 hours treatment, CellTiter96, read-out: anti-proliferation activity A375 BRAF V600E, IC50 ranking
In short: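 A375 cells (BRAF V600E) seeded at 2000 cells/well in DMEM with 10% FBS, settled overnight at 37° C, 5% CO2, then exposed to increasing compound concentrations for 72 hours. Viability read by MTS-type CellTiter96 AQueous reagent, absorbance at 490 nm after 2–4 hours.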

T1 sequence (P08581 25-1390): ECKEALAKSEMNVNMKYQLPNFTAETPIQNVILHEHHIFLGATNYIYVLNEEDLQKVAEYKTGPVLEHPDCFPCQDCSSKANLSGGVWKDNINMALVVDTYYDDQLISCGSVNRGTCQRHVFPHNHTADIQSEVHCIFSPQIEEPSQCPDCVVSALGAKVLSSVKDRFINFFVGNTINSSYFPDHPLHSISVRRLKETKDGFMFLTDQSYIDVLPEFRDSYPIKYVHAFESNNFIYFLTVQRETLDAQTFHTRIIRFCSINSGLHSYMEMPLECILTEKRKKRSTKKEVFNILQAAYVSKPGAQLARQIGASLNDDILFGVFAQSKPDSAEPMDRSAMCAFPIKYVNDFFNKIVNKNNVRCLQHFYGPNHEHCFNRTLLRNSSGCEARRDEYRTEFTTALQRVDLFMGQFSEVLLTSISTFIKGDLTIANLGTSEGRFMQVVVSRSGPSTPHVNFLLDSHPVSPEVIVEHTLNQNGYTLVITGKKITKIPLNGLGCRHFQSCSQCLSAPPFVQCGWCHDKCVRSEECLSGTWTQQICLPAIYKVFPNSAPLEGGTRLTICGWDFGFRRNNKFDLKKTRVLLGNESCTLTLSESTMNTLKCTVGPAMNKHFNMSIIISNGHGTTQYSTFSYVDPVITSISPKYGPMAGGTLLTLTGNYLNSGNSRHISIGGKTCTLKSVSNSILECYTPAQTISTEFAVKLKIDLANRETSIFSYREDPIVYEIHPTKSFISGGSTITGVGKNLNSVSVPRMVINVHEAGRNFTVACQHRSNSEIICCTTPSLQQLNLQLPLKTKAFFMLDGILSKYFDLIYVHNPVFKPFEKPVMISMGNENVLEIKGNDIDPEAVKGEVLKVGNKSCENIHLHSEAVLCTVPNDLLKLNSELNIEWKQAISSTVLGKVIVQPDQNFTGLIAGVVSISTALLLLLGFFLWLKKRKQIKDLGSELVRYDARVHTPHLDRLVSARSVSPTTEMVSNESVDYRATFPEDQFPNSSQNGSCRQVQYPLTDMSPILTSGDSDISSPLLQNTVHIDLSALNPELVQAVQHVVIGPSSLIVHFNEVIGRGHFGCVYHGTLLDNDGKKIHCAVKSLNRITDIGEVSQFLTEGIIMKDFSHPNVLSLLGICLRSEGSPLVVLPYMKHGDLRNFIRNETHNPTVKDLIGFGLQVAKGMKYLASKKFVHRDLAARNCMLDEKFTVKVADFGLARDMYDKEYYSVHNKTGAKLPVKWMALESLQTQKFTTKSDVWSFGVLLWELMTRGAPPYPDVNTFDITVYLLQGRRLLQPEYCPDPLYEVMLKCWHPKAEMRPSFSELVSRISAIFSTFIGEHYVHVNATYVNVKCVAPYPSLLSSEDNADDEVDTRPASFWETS

For `Cn1ncc2ccc(-c3n[nH]c4c3Cc3sc(-c5ccc(C(=O)N6CCOCC6)c(F)c5)cc3-4)cc21` [Compound 44, (2-fluoro-4-(3-(1-methyl-1H-indazol-6-yl)-1,4-dihydrothieno[2′,3′:4,5]cyclopenta[1,2-c]pyrazol-6-yl)phenyl)(morpholino) methanone], the inhibition at 0.03 µM [1] was over 50%, the IC50 [2] was under 30 nM and the IC50 [3] was over 1000 nM. For the same molecule, the IC50 [4] was over 10 µM, the IC50 [5] was over 10 µM and the IC50 [6] was over 10 µM.

Work on `Cn1ncc2ccc(-c3n[nH]c4c3Cc3sc(-c5ccc(CN6CCOCC6)s5)cc3-4)cc21` [Compound 51, 4-((5-(3-(1-methyl-1H-indazol-6-yl)-1,4-dihydro-thieno[2′,3′:4,5]cyclopenta [1,2-c]pyrazol-6-yl)thiophen-2-yl)methyl) morpholine] yielded an inhibition at 0.03 µM [1] of over 50%, an IC50 [2] of 30 to 100 nM and an IC50 [3] of over 1000 nM. For the same molecule, the IC50 [4] was over 10 µM, the IC50 [5] was over 10 µM and the IC50 [6] was over 10 µM.

`Cc1cc(-c2cc3c(s2)Cc2c(-c4ccc5cnn(C)c5c4)n[nH]c2-3)ccn1` [Compound 17, 3-(1-methyl-1H-indazol-6-yl)-6-(2-methylpyridin-4-yl)-1,4-dihydrothieno [2′,3′:4,5]cyclopenta[1,2-c] pyrazole] showed an inhibition at 0.03 µM [1] of over 50%, an IC50 [2] of 30 to 100 nM and an IC50 [3] of over 1000 nM. It also gave an IC50 [4] of over 10 µM, an IC50 [5] of over 10 µM and an IC50 [6] of over 10 µM.

With `C[C@@H]1CN(Cc2cccc(-c3cc4c(s3)Cc3c(-c5ccc6cnn(C)c6c5)n[nH]c3-4)c2)C[C@H](C)O1` [Compound 12, (2S,6R)-2,6-dimethyl-4-(3-(3-(1-methyl-1H-indazol-6-yl)-1,4-dihydrothieno [2′,3′:4,5]cyclopenta[1,2-c]pyrazol-6-yl)benzyl) morpholine] the inhibition at 0.03 µM [1] was over 50%, the IC50 [2] was 100 to 300 nM and the IC50 [3] was over 1000 nM. For the same molecule, the IC50 [4] was over 10 µM, the IC50 [5] was over 10 µM and the IC50 [6] was over 10 µM.

`Cn1ncc2ccc(-c3n[nH]c4c3Cc3sc(-c5cccc(C(=O)N6CCOCC6)c5)cc3-4)cc21` [Compound 37, (3-(3-(1-methyl-1H-indazol-6-yl)-1,4-dihydro-thieno[2′,3′:4,5]cyclopenta [1,2-c]pyrazol-6-yl)phenyl)(morpholino) methanone] was tested, and the inhibition at 0.03 µM [1] was over 50%, the IC50 [2] was 30 to 100 nM and the IC50 [3] was over 1000 nM. It also gave an IC50 [4] of over 10 µM, an IC50 [5] of over 10 µM and an IC50 [6] of over 10 µM.

With `Cn1ncc2ccc(-c3n[nH]c4c3Cc3sc(-c5ccc(CN6CC7(COC7)C6)cc5)cc3-4)cc21` [Compound 102, 6-(4-(3-(1-methyl-1H-indazol-6-yl)-1,4-dihydro-thieno[2′,3′:4,5]cyclopenta [1,2-c]pyrazol-6-yl)benzyl)-2-oxa-6-azaspiro [3.3]heptane] the inhibition at 0.03 µM [1] was over 50%, the IC50 [2] was under 30 nM and the IC50 [3] was 300 to 1000 nM. It also gave an IC50 [4] of over 10 µM, an IC50 [5] of over 10 µM and an IC50 [6] of over 10 µM.

`C[C@@H]1CN(Cc2ccc(-c3cc4c(s3)Cc3c(-c5ccc6cnn(C)c6c5)n[nH]c3-4)cc2)C[C@H](C)O1` [Compound 54, (2S,6R)-2,6-dimethyl-4-(4-(3-(1-methyl-1H-indazol-6-yl)-1,4-dihydro-thieno[2′,3′:4,5]cyclopenta [1,2-c]pyrazol-6-yl)benzyl)morpholine] showed an inhibition at 0.03 µM [1] of over 50%, an IC50 [2] of 30 to 100 nM and an IC50 [3] of over 1000 nM. The IC50 [4] was over 10 µM, the IC50 [5] was over 10 µM and the IC50 [6] was over 10 µM.

`Cn1ncc2ccc(-c3n[nH]c4c3Cc3sc(-c5ccc(CN6CCNC(=O)C6)cc5)cc3-4)cc21` [Compound 63, 4-(4-(3-(1-methyl-1H-indazol-6-yl)-1,4-dihydro-thieno[2′,3′:4,5]cyclopenta [1,2-c]pyrazol-6-yl)benzyl)piperazin-2-one] gave an inhibition at 0.03 µM [1] of over 50%, an IC50 [2] of under 30 nM and an IC50 [3] of over 1000 nM. For the same molecule, the IC50 [4] was over 10 µM, the IC50 [5] was over 10 µM and the IC50 [6] was over 10 µM.

From patent US12448394B2, “Heterocyclic pyrazole derivatives as type III receptor tyrosine kinase inhibitors” (DEVELOPMENT CENTER FOR BIOTECHNOLOGY, priority 2019, dated 2025)
